One experiment relates to plasma ALP (80-90% containing TNAP). The experiment in a line: Inhibitory test of plasma TNAP activity in B6 mouse. In kind it is in vivo. Particulars: administered orally, average inhibition from 0 hour to 6 hours after administration. How it is done:
After blood sampling from the tail vein using a heparin-treated hematocrit capillary tube (EM Meister Hematocrit Capillary Tube, AS ONE Corp.) (as the sample before compound administration), each test compound suspended in a 0.5% methylcellulose solution (powder purchased from Wako Pure Chemical Industries, Ltd. was adjusted to 0.5% with Otsuka distilled water) was administered orally to the mouse. 1, 2, 4, 6, and 24 hours after the administration, blood was collected from the tail vein using a heparin-treated hematocrit capillary tube to obtain a plasma sample. The plasma sample was added to an assay buffer (1 M Tris, 1 M MgCl2, 20 mM ZnCl2, and water, pH 7.5), and the mixture was left standing for 5 minutes. Then, the absorbance at 405 nm was measured and used as a blank. The substrate pNPP was added to the plasma sample and incubated at room temperature for 180 minutes. Then, the absorbance (ABS: 405 nm) was measured using a microplate reader (model plus 384, Molecular Devices, LLC), and the concentration of produced p-nitrophenol was calculated. The blank was subtracted from all measurement values to calculate TNAP activity at each time point with the TNAP activity of the sample before compound administration defined as 100%. The pharmaceutical effect of the test compound was evaluated by the average inhibition of plasma ALP (80-90% containing TNAP) activity for 6 hours from 0 hour to 6 hours after the administration of the test compound. It was calculated according to the following expression: 100−((plasma ALP activity at 0 hr+plasma ALP activity at 1 hr)*1/2+(plasma ALP activity at 1 hr+plasma ALP activity at 2 hr)*1/2+(plasma ALP activity at 2 hr+plasma ALP activity at 4 hr)*2/2+(plasma ALP activity at 4 hr+plasma ALP activity at 6 hr)*2/2)/6.
Chain of human TNAP (P05186 18-502): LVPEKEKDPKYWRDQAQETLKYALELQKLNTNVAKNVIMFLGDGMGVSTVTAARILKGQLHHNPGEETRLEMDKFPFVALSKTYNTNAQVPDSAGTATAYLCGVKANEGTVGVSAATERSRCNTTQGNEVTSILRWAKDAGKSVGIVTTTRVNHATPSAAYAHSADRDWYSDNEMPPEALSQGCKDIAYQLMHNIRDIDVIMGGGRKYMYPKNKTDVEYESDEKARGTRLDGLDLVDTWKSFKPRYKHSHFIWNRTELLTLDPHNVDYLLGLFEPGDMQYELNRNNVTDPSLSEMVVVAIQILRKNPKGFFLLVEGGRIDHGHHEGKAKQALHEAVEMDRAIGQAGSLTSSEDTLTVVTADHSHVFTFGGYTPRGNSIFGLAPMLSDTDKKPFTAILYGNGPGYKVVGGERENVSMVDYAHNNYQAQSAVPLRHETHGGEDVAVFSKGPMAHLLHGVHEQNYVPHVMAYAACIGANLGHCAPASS
In the case of `COc1ccc(Cl)cc1S(=O)(=O)[N-]c1cnc2c(c1)C(=O)NCCO2.[K+]` [Example 47, Potassium [(5-chloro-2-methoxyphenyl)sulfonyl](5-oxo-2,3,4,5-tetrahydropyrido[3,2-f][1,4]oxazepin-7-yl)azanide], the “Plasma ALP inhibition (6 h ave. inhibition %)” value is listed as 54.7%.
The same measure, in the same setting: with `COc1ccc(Br)cc1S(=O)(=O)[N-]c1cnc2c(c1)C(=O)N[C@@H](CO)CO2.[K+]` [Example 53, Potassium [(5-bromo-2-methoxyphenyl)sulfonyl][(3S)-3-(hydroxymethyl)-5-oxo-2,3,4,5-tetrahydropyrido[3,2-f][1,4]oxazepin-7-yl]azanide] the figure was 59.2%; with `COc1ccc(OC)c(S(=O)(=O)[N-]c2cnc3c(c2)C(=O)NC2(CC2)CO3)c1.[K+]` [Example 61, Potassium [(2,5-dimethoxyphenyl)sulfonyl](5′-oxo-4′,5′-dihydrospiro[cyclopropane-1,3′-pyrido[3,2-f][1,4]oxazepin]-7′-yl)azanide], 67.5%.
Consider `COc1ccc(F)cc1S(=O)(=O)[N-]c1cnc2c(c1)C(=O)NCCO2.[K+]` [Example 48, Potassium [(5-fluoro-2-methoxyphenyl)sulfonyl](5-oxo-2,3,4,5-tetrahydropyrido[3,2-f][1,4]oxazepin-7-yl)azanide], for which the “Plasma ALP inhibition (6 h ave. inhibition %)” value was determined as 61.6%.
The same measure, in the same setting: to `CCOc1ccc(F)cc1S(=O)(=O)[N-]c1cnc2c(c1)C(=O)NC1(CC1)CO2.[K+]` [Example 59] belongs 66.2%; to `COc1ccc(Cl)cc1S(=O)(=O)[N-]c1cnc2c(c1)C(=O)N[C@@H](CO)CO2.[K+]` [Example 51, Potassium [(5-chloro-2-methoxyphenyl)sulfonyl][(3S)-3-(hydroxymethyl)-5-oxo-2,3,4,5-tetrahydropyrido[3,2-f][1,4]oxazepin-7-yl]azanide], 63.7%; to `COc1ccc(Cl)cc1S(=O)(=O)[N-]c1cnc2c(c1)C(=O)NC1(CC1)CO2.[K+]` [Example 55, Potassium [(5-chloro-2-methoxyphenyl)sulfonyl](5′-oxo-4′,5′-dihydrospiro[cyclopropane-1,3′-pyrido[3,2-f][1,4]oxazepin]-7′-yl)azanide], 58.9%.
In the case of `O=C1NCCOc2ncc([N-]S(=O)(=O)c3cc(Cl)ccc3OC(F)(F)F)cc21.[K+]` [Example 50, Potassium {[5-chloro-2-(trifluoromethoxy)phenyl]sulfonyl}(5-oxo-2,3,4,5-tetrahydropyrido[3,2-f][1,4]oxazepin-7-yl)azanide], the “Plasma ALP inhibition (6 h ave. inhibition %)” value came to 56.0%.
As to `COc1ccc(F)cc1S(=O)(=O)[N-]c1cnc2c(c1)C(=O)N[C@@H](CO)CO2.[K+]` [Example 52, Potassium [(5-fluoro-2-methoxyphenyl)sulfonyl][(3S)-3-(hydroxymethyl)-5-oxo-2,3,4,5-tetrahydropyrido[3,2-f][1,4]oxazepin-7-yl]azanide], the “Plasma ALP inhibition (6 h ave. inhibition %)” value was 61.3%.

A further experiment has as its target human TNAP (Homo sapiens (Human), UniProt P05186). The experiment in a line: Inhibitory test of TNAP activity (pNPP substrate, p-nitrophenol production). In kind it is biochemical. Particulars: inhibition of human TNAP activity, incubated at room temperature for 60 minutes. How it is done: COS 1 cells (DS Pharma Biomedical Co., Ltd.) were transfected with human TNAP (OriGene Technologies, Inc.) using Lipofectamine LTX & Plus reagent (Invitrogen Corp.). On the next day, the medium was replaced with a fresh medium, and the cells were cultured in an incubator for 3 days. After 3 days, the culture supernatant was collected and concentrated by centrifugation at 5000 G for 30 minutes using Amicon 14, 10^4 cut (Merck Millipore). The concentrated culture supernatant was dialyzed against 5 L of 50 mM Tris/200 mM NaCl/1 mM MgCl2/20 μM ZnCl2 twice and used as an enzyme source (enzyme solution). The substrate pNPP (ProteoChem Inc.) was adjusted to 3.1 mM with Milli-Q water, and a solution of each test compound dissolved in dimethyl sulfoxide (DMSO; Wako Pure Chemical Industries, Ltd.) by 6 serial dilutions at a 5-fold common ratio from 100 μM, or DMSO was added thereto at a final concentration of 1% by volume. The enzyme solution adjusted to 2 μg/mL with an assay buffer (200 mM Tris/2 mM MgCl2/0.04 mM ZnCl2/0.01% Tween 20) was added in the same amount of the substrate solution and incubated at room temperature for 60 minutes. Then, the absorbance (ABS: 405 nm) was measured using a microplate reader (model plus 384, Molecular Devices, LLC), and the concentration of produced p-nitrophenol was calculated.
The IC50 is the concentration needed to halve the response being measured. Low readings indicate greater potency, high ones weaker potency. In turn, `COc1ccc(Cl)cc1S(=O)(=O)Nc1cnc2c(c1)C(=O)N(c1ccccc1)CCO2` [Example 37, 5-Chloro-2-methoxy-N-(5-oxo-4-phenyl-2,3,4,5-tetrahydropyrido[3,2-f][1,4]oxazepin-7-yl)benzenesulfonamide] came in with a 50% inhibitory concentration (IC50) of 43.4 nM.
The same measure, in the same setting: with `COc1ccc(Cl)cc1S(=O)(=O)Nc1cnc2c(c1)C(=O)N[C@@H](CO)CO2` [Example 27, 5-Chloro-N-[(3S)-3-(hydroxymethyl)-5-oxo-2,3,4,5-tetrahydropyrido[3,2-f][1,4]oxazepin-7-yl]-2-methoxybenzenesulfonamide] the figure was 1.5 nM.
`O=C1NC2(CC2)COc2ncc(NS(=O)(=O)c3cc(Cl)ccc3OC(F)(F)F)cc21` [Example 40, 5-Chloro-N-(5′-oxo-4′,5′-dihydrospiro[cyclopropane-1,3′-pyrido[3,2-f][1,4]oxazepin]-7′-yl)-2-(trifluoromethoxy)benzenesulfonamide]: 1.9 nM corresponded to half-maximal inhibition (IC50).
Same read-out and setting: to `COc1ccc(F)cc1S(=O)(=O)Nc1cnc2c(c1)C(=O)N(C)C(C)CO2` (stereo not shown) [Example 17, N-(3,4-Dimethyl-5-oxo-2,3,4,5-tetrahydropyrido[3,2-f][1,4]oxazepin-7-yl)-5-fluoro-2-methoxybenzenesulfonamide] belongs 12.6 nM.
`COc1ccc(F)cc1S(=O)(=O)Nc1cnc2c(c1)C(=O)N(C)[C@H](C)CO2` [Example 21, N-[(3R)-3,4-Dimethyl-5-oxo-2,3,4,5-tetrahydropyrido[3,2-f][1,4]oxazepin-7-yl]-5-fluoro-2-methoxybenzenesulfonamide] showed a concentration for half-maximal inhibition (IC50) of 46 nM.
Molecule `CCN1CCOc2ncc(NS(=O)(=O)c3cc(Cl)ccc3OC)cc2C1=O` [Example 3, 5-Chloro-N-(4-ethyl-5-oxo-2,3,4,5-tetrahydropyrido[3,2-f][1,4]oxazepin-7-yl)-2-methoxybenzenesulfonamide] returned an IC50 of 12.8 nM.
For the molecule `COc1ccc(Cl)cc1S(=O)(=O)Nc1cnc2c(c1)C(=O)NC(C(=O)N(C)C)CO2` (stereo not shown) [Example 45, 7-{[(5-Chloro-2-methoxyphenyl)sulfonyl]amino}-N,N-dimethyl-5-oxo-2,3,4,5-tetrahydropyrido[3,2-f][1,4]oxazepine-3-carboxamide], the IC50 worked out at 14.6 nM. This IC50 and that of the molecule before are within 1.5-fold of each other.
Same read-out and setting: to `COc1ccc(Cl)cc1S(=O)(=O)Nc1cnc2c(c1)C(=O)N(C)CC(C)O2` (stereo not shown) [Example 14, 5-Chloro-N-(2,4-dimethyl-5-oxo-2,3,4,5-tetrahydropyrido[3,2-f][1,4]oxazepin-7-yl)-2-methoxybenzenesulfonamide] belongs 36.2 nM.
Consider `COc1ccc(Cl)cc1S(=O)(=O)Nc1cnc2c(c1)C(=O)N(CCO)CCO2` [Example 6, 5-Chloro-N-[4-(2-hydroxyethyl)-5-oxo-2,3,4,5-tetrahydropyrido[3,2-f][1,4]oxazepin-7-yl]-2-methoxybenzenesulfonamide], for which the IC50 was found to be 6.1 nM.
Same read-out and setting: with `COc1ccc(Cl)cc1S(=O)(=O)Nc1cnc2c(c1)C(=O)N[C@@H](CC(=O)N(C)C)CO2` [Example 34, 2-[(3S)-7-{[(5-Chloro-2-methoxyphenyl)sulfonyl]amino}-5-oxo-2,3,4,5-tetrahydropyrido[3,2-f][1,4]oxazepin-3-yl]-N,N-dimethylacetamide] the figure was 6.7 nM; with `CC[C@H]1COc2ncc(NS(=O)(=O)c3cc(Cl)ccc3OC)cc2C(=O)N1` [Example 25, 5-Chloro-N-[(3S)-3-ethyl-5-oxo-2,3,4,5-tetrahydropyrido[3,2-f][1,4]oxazepin-7-yl]-2-methoxybenzenesulfonamide], 1.7 nM; with `COCCN1CCOc2ncc(NS(=O)(=O)c3cc(Cl)ccc3OC)cc2C1=O` [Example 7, 5-Chloro-2-methoxy-N-[4-(2-methoxyethyl)-5-oxo-2,3,4,5-tetrahydropyrido[3,2-f][1,4]oxazepin-7-yl]benzenesulfonamide], 10.7 nM.
The molecule `COc1ccc(Br)cc1S(=O)(=O)Nc1cnc2c(c1)C(=O)N[C@@H](CO)CO2` [Example 29, 5-Bromo-N-[(3S)-3-(hydroxymethyl)-5-oxo-2,3,4,5-tetrahydropyrido[3,2-f][1,4]oxazepin-7-yl]-2-methoxybenzenesulfonamide] showed an IC50 of 1.2 nM.
For the molecule `COc1ccc(Cl)cc1S(=O)(=O)Nc1cnc2c(c1)C(=O)N[C@@H](C(C)C)CO2` [Example 26, 5-Chloro-2-methoxy-N-[(3S)-5-oxo-3-(propan-2-yl)-2,3,4,5-tetrahydropyrido[3,2-f][1,4]oxazepin-7-yl]benzenesulfonamide], the IC50 is 8.7 nM. Compared with the last molecule, the IC50 is about 7.2-fold higher.
For `COc1ccc(OC)c(S(=O)(=O)Nc2cnc3c(c2)C(=O)NCCO3)c1` [Example 11, 2,5-Dimethoxy-N-(5-oxo-2,3,4,5-tetrahydropyrido[3,2-f][1,4]oxazepin-7-yl)benzenesulfonamide], the IC50 came out at 4.8 nM. Compared with the last molecule, the IC50 is about 1.8-fold lower.
Still for that read-out and setting: to `COc1ccc(F)cc1S(=O)(=O)Nc1cnc2c(c1)C(=O)N(C)CCO2` [Example 2, 5-Fluoro-2-methoxy-N-(4-methyl-5-oxo-2,3,4,5-tetrahydropyrido[3,2-f][1,4]oxazepin-7-yl)benzenesulfonamide] belongs 12.7 nM.
